ChEMBL document CHEMBL3044789, “Comparing weed and crop seedling response to pre-emergence pendimethalin application in Corchorus olitorius and Abelmoschus esculentus” (Crop Prot, 2006)

How the values were obtained:
Corchorus olitorius [1] = experiment: Phytotoxicity in Corchorus olitorius assessed as seed germination at 0.99 kg a.i/ha applied as solution after 7 weeks relative to untreated control; type: organism-based; conditions: in vivo, other, 1176 h
Corchorus olitorius [2] = experiment: Phytotoxicity in Corchorus olitorius assessed as shoot length at 0.66 kg a.i/ha treated to soil after 7 weeks (reference value: 23.7 +/- 0.10 mm); type: organism-based; conditions: in vivo, other, 1176 h
Euphorbia heterophylla [3] = experiment: Herbicidal activity against Euphorbia heterophylla in Abelmoschus esculentus plots assessed as weed cover at 0.66 kg a.i/ha after 4 weeks (reference value: 22.6 +/- 0.49 %); type: functional
Corchorus olitorius [4] = experiment: Phytotoxicity in Corchorus olitorius assessed as seed germination at 0.33 kg a.i/ha applied as solution after 7 weeks relative to untreated control; type: organism-based; conditions: in vivo, other, 1176 h
Synedrella nodiflora [5] = experiment: Herbicidal activity against Synedrella nodiflora in Corchorus olitorius plots assessed as weed cover at 0.33 kg a.i/ha after 4 weeks (reference value: 20.1+/- 0.57 %); type: functional
Asteraceae = experiment: Herbicidal activity against Aspilia africana in Corchorus olitorius plots assessed as weed cover at 0.66 kg a.i/ha after 2 weeks (reference value: 81.7 +/- 0.43 %); type: functional
Euphorbia heterophylla [6] = experiment: Herbicidal activity against Euphorbia heterophylla in Abelmoschus esculentus plots assessed as weed recovery at 1.32 kg a.i/ha after 2 weeks (reference value: 60.1 +/- 0.46 %); type: functional
Chromolaena odorata = experiment: Herbicidal activity against Chromolaena odorata in Corchorus olitorius plots assessed as weed cover at 1.32 kg a.i/ha after 7 weeks (reference value: 1.7 +/- 0.56 %); type: functional
Mimosa pudica [7] = experiment: Herbicidal activity against Mimosa pudica in Abelmoschus esculentus plots assessed as weed cover at 0.33 kg a.i/ha after 4 weeks (reference value: 22.6 +/- 0.49 %); type: functional
Calopogonium mucunoides [8] = experiment: Herbicidal activity against Calopogonium mucunoides in Corchorus olitorius plots assessed as weed cover at 0.99 kg a.i/ha after 7 weeks (reference value: 1.7 +/- 0.56 %); type: functional
Synedrella nodiflora [9] = experiment: Herbicidal activity against Synedrella nodiflora in Corchorus olitorius plots assessed as minor weed growth at 0.66 kg a.i/ha after 2 weeks; type: functional
Euphorbia heterophylla [10] = experiment: Herbicidal activity against Euphorbia heterophylla in Abelmoschus esculentus plots assessed as weed cover at 1.32 kg a.i/ha after 4 weeks (reference value: 22.6 +/- 0.49 %); type: functional
Abelmoschus esculentus [11] = experiment: Phytotoxicity in Abelmoschus esculentus assessed as seedling emergence at 1.32 kg a.i/ha treated to soil after 7 weeks (reference value: 95 +/- 0.05 %); type: organism-based; conditions: in vivo, other, 1176 h
Abelmoschus esculentus [12] = experiment: Phytotoxicity in Abelmoschus esculentus assessed as crop seedling injury at 0.33 kg a.i/ha after 2 weeks relative to untreated control; type: organism-based; conditions: in vivo, 336 h
Commelina diffusa = experiment: Herbicidal activity against Commelina diffusa in Abelmoschus esculentus plots assessed as weed cover at 0.66 kg a.i/ha after 4 weeks (reference value: 22.6 +/- 0.49 %); type: functional
Synedrella nodiflora [13] = experiment: Herbicidal activity against Synedrella nodiflora in Corchorus olitorius plots assessed as weed cover at 0.66 kg a.i/ha after 4 weeks (reference value: 20.1+/- 0.57 %); type: functional
Ageratum conyzoides [14] = experiment: Herbicidal activity against Ageratum conyzoides in Corchorus olitorius plots assessed as weed recovery at 1.32 kg a.i/ha after 2 weeks (reference value: 78.3 +/- 0.74 %); type: functional
Synedrella nodiflora [15] = experiment: Herbicidal activity against Synedrella nodiflora in Abelmoschus esculentus plots assessed as weed recovery at 0.66 kg a.i/ha after 2 weeks (reference value: 60.1 +/- 0.46 %); type: functional
Ageratum conyzoides [16] = experiment: Herbicidal activity against Ageratum conyzoides in Abelmoschus esculentus plots assessed as weed cover at 0.33 kg a.i/ha after 2 weeks (reference value: 63.5 +/- 0.29 %); type: functional
[17] = tested on: Rottboellia cochinchinensis; experiment: Herbicidal activity against Rottboellia cochinchinensis in Abelmoschus esculentus plots assessed as weed recovery at 0.33 kg a.i/ha after 2 weeks (reference value: 60.1 +/- 0.46 %); type: functional
Abelmoschus esculentus [18] = experiment: Phytotoxicity in Abelmoschus esculentus assessed as seedling injury at 0.33 kg a.i/ha applied as solution after 7 weeks relative to control; type: organism-based; conditions: in vivo, other, 1176 h
Ageratum conyzoides [19] = experiment: Herbicidal activity against Ageratum conyzoides in Corchorus olitorius plots assessed as weed cover at 0.33 kg a.i/ha after 7 weeks (reference value: 1.7 +/- 0.56 %); type: functional
Calopogonium mucunoides [20] = experiment: Herbicidal activity against Calopogonium mucunoides in Abelmoschus esculentus plots assessed as weed cover at 1.32 kg a.i/ha after 4 weeks (reference value: 22.6 +/- 0.49 %); type: functional
Talinum fruticosum [21] = experiment: Herbicidal activity against Talinum fruticosum in Corchorus olitorius plots assessed as minor weed growth at 0.99 kg a.i/ha after 2 weeks; type: functional
Ageratum conyzoides [22] = experiment: Herbicidal activity against Ageratum conyzoides in Abelmoschus esculentus plots assessed as weed cover at 0.33 kg a.i/ha after 7 weeks (reference value: 14.7 +/- 0.46 %); type: functional
Ageratum conyzoides [23] = experiment: Herbicidal activity against Ageratum conyzoides in Corchorus olitorius plots assessed as weed recovery at 0.33 kg a.i/ha after 2 weeks (reference value: 78.3 +/- 0.74 %); type: functional
Talinum fruticosum [24] = experiment: Herbicidal activity against Talinum fruticosum in Abelmoschus esculentus plots assessed as weed cover at 0.99 kg a.i/ha after 7 weeks (reference value: 14.7 +/- 0.46 %); type: functional
[25] = tested on: Rottboellia cochinchinensis; experiment: Herbicidal activity against Rottboellia cochinchinensis in Abelmoschus esculentus plots assessed as weed cover at 0.33 kg a.i/ha after 4 weeks (reference value: 22.6 +/- 0.49 %); type: functional
Corchorus olitorius [26] = experiment: Phytotoxicity in Corchorus olitorius assessed as crop seedling injury at 0.33 kg a.i/ha after 2 weeks relative to untreated control; type: organism-based; conditions: in vivo, 336 h
Calopogonium mucunoides [27] = experiment: Herbicidal activity against Calopogonium mucunoides in Abelmoschus esculentus plots assessed as weed recovery at 1.32 kg a.i/ha after 2 weeks (reference value: 60.1 +/- 0.46 %); type: functional
Synedrella nodiflora [28] = experiment: Herbicidal activity against Synedrella nodiflora in Abelmoschus esculentus plots assessed as weed cover at 1.32 kg a.i/ha after 4 weeks (reference value: 22.6 +/- 0.49 %); type: functional
Mimosa pudica [29] = experiment: Herbicidal activity against Mimosa pudica in Abelmoschus esculentus plots assessed as weed cover at 0.33 kg a.i/ha after 7 weeks (reference value: 14.7 +/- 0.46 %); type: functional
Calopogonium mucunoides [30] = experiment: Herbicidal activity against Calopogonium mucunoides in Corchorus olitorius plots assessed as weed recovery at 1.32 kg a.i/ha after 2 weeks (reference value: 78.3 +/- 0.74 %); type: functional
Euphorbia heterophylla [31] = experiment: Herbicidal activity against Euphorbia heterophylla in Abelmoschus esculentus plots assessed as weed cover at 0.99 kg a.i/ha after 2 weeks (reference value: 63.5 +/- 0.29 %); type: functional
Ageratum conyzoides [32] = experiment: Herbicidal activity against Ageratum conyzoides in Abelmoschus esculentus plots assessed as weed cover at 1.32 kg a.i/ha after 2 weeks (reference value: 63.5 +/- 0.29 %); type: functional
Corchorus olitorius [33] = experiment: Phytotoxicity in Corchorus olitorius assessed as seedling emergence at 1.32 kg a.i/ha treated to soil after 7 weeks (reference value: 95 +/- 0.05 %); type: organism-based; conditions: in vivo, other, 1176 h

With `CCC(CC)Nc1c([N+](=O)[O-])cc(C)c(C)c1[N+](=O)[O-]` [PENDIMETHALIN] as the compound, how does the Activity (Corchorus olitorius [1]) read?
Its Activity is 72.7%.

And the Activity (Corchorus olitorius [2])?
Its Activity is 20.8 mm.

What about the Activity (Euphorbia heterophylla [3]) of the same compound?
Its Activity is 47.9%.

And the Activity (Corchorus olitorius [4])?
Its Activity is 88.7%.

What about the Activity (Synedrella nodiflora [5]) of the same compound?
The Activity was 73.3%.

What about the Activity (Asteraceae) of the same compound?
The Activity was 51.7%.

And the Activity (Euphorbia heterophylla [6])?
Its Activity is 33.2%.

And the Activity (Chromolaena odorata)?
The Activity was 95%.

And the Activity (Mimosa pudica [7])?
The Activity was 53.8%.

And the Activity (Calopogonium mucunoides [8])?
Its Activity is 95%.

What about the Activity (Synedrella nodiflora [9]) of the same compound?
Its Activity is 1 /m2.

What about the Activity (Euphorbia heterophylla [10]) of the same compound?
Its Activity is 36.2%.

What about the Activity (Abelmoschus esculentus [11]) of the same compound?
The Activity was 85%.

What about the Activity (Abelmoschus esculentus [12]) of the same compound?
The Activity was 39.9%.

And the Activity (Commelina diffusa)?
Its Activity is 47.9%.

What about the Activity (Synedrella nodiflora [13]) of the same compound?
Its Activity is 63.3%.

And the Activity (Ageratum conyzoides [14])?
Its Activity is 13.3%.

And the Activity (Synedrella nodiflora [15])?
The Activity was 47.9%.

What about the Activity (Ageratum conyzoides [16]) of the same compound?
Its Activity is 56.8%.

What about the Activity [17] of the same compound?
Its Activity is 39.2%.

And the Activity (Abelmoschus esculentus [18])?
Its Activity is 29.9%.

What about the Activity (Ageratum conyzoides [19]) of the same compound?
The Activity was 100%.

What about the Activity (Calopogonium mucunoides [20]) of the same compound?
The Activity was 36.2%.

What about the Activity (Talinum fruticosum [21]) of the same compound?
The Activity was 1 /m2.

What about the Activity (Ageratum conyzoides [22]) of the same compound?
The Activity was 90%.

What about the Activity (Ageratum conyzoides [23]) of the same compound?
The Activity was 31.7%.

What about the Activity (Talinum fruticosum [24]) of the same compound?
Its Activity is 83.9%.

What about the Activity [25] of the same compound?
Its Activity is 53.8%.

And the Activity (Corchorus olitorius [26])?
Its Activity is 41.7%.

What about the Activity (Calopogonium mucunoides [27]) of the same compound?
Its Activity is 33.2%.

And the Activity (Synedrella nodiflora [28])?
Its Activity is 36.2%.

And the Activity (Mimosa pudica [29])?
The Activity was 90%.

What about the Activity (Calopogonium mucunoides [30]) of the same compound?
Its Activity is 13.3%.

What about the Activity (Euphorbia heterophylla [31]) of the same compound?
The Activity was 47.9%.

What about the Activity (Ageratum conyzoides [32]) of the same compound?
Its Activity is 45%.

And the Activity (Corchorus olitorius [33])?
The Activity was 83.3%.
